The results in this text go back to patent US20260028337A1, “COMPOUND FOR INHIBITING IRAK4 ACTIVITY AND USE THEREOF” (SHENZHEN ZHONGGE BIOLOGICAL TECHNOLOGY CO., LTD., priority 2022, published 2026).

In this assay the target is IRAK4 kinase (Homo sapiens (Human), UniProt Q9NWZ3). The assay is described as follows: IRAK4 Kinase Inhibition Assay (Cisbio HTRF KinEASE-STK S1 kit). To be noted: IRAK4 kinase protein 10 nM, ATP 200 μM, STK Substrate 1-biotin 1 μM, 37° C. 2 h, read-out: IC50 (nM), IRAK4 kinase inhibitory activity. Type of assay: biochemical. On the procedure: Test Example 1. IRAK4 Kinase Inhibition Assay
In this assay, Cisbio HTRF KinEASE-STK SI kit (62S 1 PEB) was used, in which assay/detection buffer, STK Substrate 1-biotin, Streptavidin-XL665, STK Antibody-Cryptate were contained.
After adding compound/DMSO to a 384-well plate (PerkinElmer 6008280) using Echo 665, 5 μL of 2-fold reaction concentration of IRAK4 kinase protein (final concentration: 10 nM) dissolved with assay buffer [1 volume of 5× kinase buffer+20 mM magnesium chloride (Sigma) solution+1 mM DTT (Alfa Aesar) solution+4 volumes deionized water] was added, followed by sealing the shallow well plate, shaking and then centrifuging at 1000 rpm for 1 min, and incubating at room temperature for 5 min; then 5 μL of 2-fold reaction concentration of a 1:1 mixture of STK Substrate 1-biotin (final concentration: 1 μM) and ATP (Sigma A1852) (final concentration: 200 μM) formulated with assay buffer was added, followed by sealing the shallow well plate, shaking and then centrifuging at 1000 rpm for 1 min, and incubating at 37° C. for 2 h, and then 10 μL of a 1:1 mixture of Streptavidin-XL665 (final concentration: 62.5 nM) and STK-antibody-cryptate dissolved with detection buffer was added, followed by sealing the shallow well plate, shaking and then centrifuging at 1000 rpm for 1 min, and incubating at room temperature for 1 h, and thereafter reading the value at the wavelength of 620 nm/665 nm using a microplate reader. The data were analyzed using Prism 9.3 software, and the IC50 value of IRAK4 kinase inhibition was fitted using a four parameter Logistic equation.
A general note: In TR-FRET formats the signal depends on donor and acceptor labels being close together.

Chain of IRAK4 kinase (Q9NWZ3 whole entry): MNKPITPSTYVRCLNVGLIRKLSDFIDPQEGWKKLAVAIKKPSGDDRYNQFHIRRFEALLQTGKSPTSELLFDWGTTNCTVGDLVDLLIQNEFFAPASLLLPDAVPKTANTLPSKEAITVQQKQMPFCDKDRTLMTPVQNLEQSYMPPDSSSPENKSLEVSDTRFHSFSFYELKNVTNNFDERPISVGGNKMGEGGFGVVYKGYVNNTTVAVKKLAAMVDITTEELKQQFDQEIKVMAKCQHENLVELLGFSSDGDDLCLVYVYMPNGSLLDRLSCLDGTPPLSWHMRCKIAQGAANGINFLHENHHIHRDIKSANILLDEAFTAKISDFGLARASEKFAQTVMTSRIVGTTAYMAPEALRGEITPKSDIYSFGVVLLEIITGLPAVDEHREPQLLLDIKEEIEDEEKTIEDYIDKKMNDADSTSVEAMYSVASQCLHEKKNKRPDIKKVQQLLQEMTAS

Turning to `OCC1CCC(n2cc(-n3cc(-c4cnn5ccc(N6CCC[C@@H](O)C6)nc45)nn3)c(C(F)F)n2)CC1` (stereo partly drawn) [Compound 113A, (R)-1-(3-(1-(3-(difluoromethyl)-1-((1r,4r)-4-(methylol)cyclohexyl)-1H-pyrazol-4-yl)-1H-1,2,3-triazol-4-yl]pyrazolo[1,5-a]pyrimidin-3-yl) piperidin-3-ol], the IC50 (as a rule, the concentration that gives 50% inhibition) was under 100 nM.
